Test results from US9499553B2 (CHUGAI SEIYAKU KABUSHIKI KAISHA, priority 2013, dated 2016).
Counter-ions that a name gives are not always drawn. Like-named read-outs stand apart in the source and are kept apart here.

Columns and labels:
[1] = test system: rat small-intestinal brush border membrane vesicles; assay: Inhibitory effect on 33PO4 uptake into rat small-intestinal brush border membrane vesicles (rapid filtration method); assay type: biochemical; details: 1 μM test compound; 33PO4 uptake into rat small-intestinal BBMVs, reacted for 60 seconds
Experimental: Test Example 1: Inhibitory Effect on ^33PO4 Uptake into Rat Small-Intestinal Brush Border Membrane Vesicles Brush border membrane vesicles (BBMVs) were prepared using the upper region of the small intestine of each Wistar female rat (4-5 weeks old). The preparation of BBMVs was performed according to the method of Murer et al. (Murer […]. Sodium/proton antiport in brush-border-membrane vesicles isolated from rat small intestine and kidney. 1976. J Am Soc Nephrol. 1998 January; 9 (1): 143-50). The ^33PO4 transport activity of the small-intestinal BBMVs was determined by the rapid filtration method. […] Then, ice-cold buffer C (110 mM NaCl, 1 mM KH2PO4, and 10 mM HEPES (pH 7.5)) was added to each reaction mixture, which was immediately suction-filtered through a Millipore filter. The filter was washed with buffer C, and each sample was then dissolved in a liquid scintillator. The amount of ^33PO4 uptake into BBMVs was measured using a liquid scintillation counter.

human NaPi-IIb = target: T1, human NaPi-IIb (Homo sapiens, UniProt O95436); assay: Inhibitory effect on 33PO4 uptake into human NaPi-IIb-expressing CHO cells; assay type: cell-based
T1 construct: expressed in transfected cells
T1 sequence (O95436 1-690): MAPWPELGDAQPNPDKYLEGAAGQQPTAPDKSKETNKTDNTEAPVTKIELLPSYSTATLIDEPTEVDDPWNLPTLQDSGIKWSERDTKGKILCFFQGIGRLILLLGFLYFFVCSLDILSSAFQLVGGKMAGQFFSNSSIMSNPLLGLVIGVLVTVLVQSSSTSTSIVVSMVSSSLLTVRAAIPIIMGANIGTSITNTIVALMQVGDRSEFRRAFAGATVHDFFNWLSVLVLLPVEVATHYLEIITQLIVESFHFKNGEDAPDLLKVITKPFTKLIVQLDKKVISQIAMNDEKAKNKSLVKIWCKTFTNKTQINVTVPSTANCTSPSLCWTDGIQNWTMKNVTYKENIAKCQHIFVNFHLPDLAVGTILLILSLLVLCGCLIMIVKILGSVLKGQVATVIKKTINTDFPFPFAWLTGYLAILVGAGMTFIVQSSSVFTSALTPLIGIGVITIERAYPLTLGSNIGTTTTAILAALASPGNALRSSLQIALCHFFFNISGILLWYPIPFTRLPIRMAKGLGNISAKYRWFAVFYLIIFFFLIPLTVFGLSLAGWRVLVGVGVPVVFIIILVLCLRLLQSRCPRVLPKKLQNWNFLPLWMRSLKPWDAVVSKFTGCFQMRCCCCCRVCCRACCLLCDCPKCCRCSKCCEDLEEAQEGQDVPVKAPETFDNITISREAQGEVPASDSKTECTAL
Method in brief: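 Stable human NaPi-IIb CHO line (G418-selected), plated and cultured overnight; ³³PO4 added in buffer A and uptake run at room temperature. Cells washed with ice-cold buffer A, then uptake counted by liquid scintillation.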

[2] = read-out: IC50 against 33PO4 uptake into human NaPi-IIb-expressing cells

| SMILES | Rate of uptake inhibition (%) (1 μM) [1] | IC50 (human NaPi-IIb; read-out: IC50) [µM] | IC50 (human NaPi-IIb; [2]) [µM] |
| --- | --- | --- | --- |
| C[C@]12CCCN1N(Cc1cccc(F)c1F)C(=O)C(C(=O)Nc1ccc(Br)c(C(F)(F)F)c1)=C2O [Example 30] | 71 | 2.3 |  |
| C[C@]12CCCN1N(Cc1cccc(F)c1F)C(=O)C(C(=O)Nc1ccc(Br)c(Cl)c1)=C2O [Example 31] | 76 |  |  |
| C[C@]12CCCN1N(Cc1cccc(F)c1F)C(=O)C(C(=O)Nc1ccc(Br)c(F)c1F)=C2O [Example 32] | 73 | 2.8 |  |
| C[C@]12CCCN1N(Cc1cccc(F)c1F)C(=O)C(C(=O)Nc1cc(Br)c(Br)cc1F)=C2O [Example 33] | 77 | 6 |  |
| C[C@]12CCCN1N(Cc1cccc(F)c1)C(=O)C(C(=O)Nc1ccc(C(F)(F)F)cc1-c1cc(C(F)(F)F)ncn1)=C2O [Example 34] | 99 | 7 |  |
| C[C@]12CCCN1N(Cc1cccc(F)c1)C(=O)C(C(=O)Nc1ccc(Br)c(F)c1)=C2O [Example 35] | 79 | 12.6 |  |
| C[C@]12CCCN1N(Cc1cccc(F)c1)C(=O)C(C(=O)Nc1cc(F)c(Br)c(F)c1)=C2O [Example 36] | 80 | 6.1 |  |
| C[C@]12CCCN1N(Cc1cccc(F)c1Br)C(=O)C(C(=O)Nc1ccc(Br)c(F)c1)=C2O [Example 37] | 89 | 3.7 |  |
| C[C@]12CCCN1N(Cc1cccc(F)c1Br)C(=O)C(C(=O)Nc1ccc(Cl)cc1F)=C2O [Example 38] | 90 | 6.7 |  |
| Cc1nc(NC(=O)C2=C(O)[C@@]3(C)CCCN3N(Cc3cccc(F)c3Br)C2=O)ccc1Br [Example 39] | 90 | 8.5 |  |
| C[C@]12CCCN1N(Cc1cccc(F)c1Br)C(=O)C(C(=O)Nc1ccc(Br)c(C#N)c1)=C2O [Example 40] | 87 | 6.5 |  |
| C[C@]12CCCN1N(Cc1cccc(F)c1Br)C(=O)C(C(=O)Nc1ccc(Br)c(Cl)c1)=C2O [Example 41] | 84 | 6.6 |  |
| C[C@]12CCCN1N(Cc1cccc(F)c1Br)C(=O)C(C(=O)Nc1ccc(Br)c(C(F)(F)F)c1)=C2O [Example 42] | 67 | 5 |  |
| C[C@]12CCCN1N(Cc1cccc(F)c1Br)C(=O)C(C(=O)Nc1cccc(Cl)c1F)=C2O [Example 43] | 79 | 8.3 |  |
| COc1cccc(-c2cc(C(F)(F)F)ccc2NC(=O)C2=C(O)[C@@]3(C)CCCN3N(Cc3cccc(F)c3F)C2=O)c1OC [Example 44] | 94 |  |  |
| C[C@]12CCCN1N(Cc1cccc(F)c1F)C(=O)C(C(=O)Nc1ccc(C(F)(F)F)cc1-c1cc(C#N)ccn1)=C2O [Example 45] | 73 | 13 |  |
| C[C@]12CCCN1N(Cc1cccc(F)c1F)C(=O)C(C(=O)Nc1ccc(C(F)(F)F)cc1-c1cccc(C#N)c1F)=C2O [Example 46] | 71 | 14.1 |  |
| Cc1c(-c2cc(C(F)(F)F)ccc2NC(=O)C2=C(O)[C@@]3(C)CCCN3N(Cc3cccc(F)c3F)C2=O)ccnc1Cl [Example 47] | 91 | 7.1 |  |
| C[C@]12CCCN1N(Cc1cccc(F)c1F)C(=O)C(C(=O)Nc1ccc(C(F)(F)F)cc1-c1cccc(F)c1C#N)=C2O [Example 48] | 87 | 16.3 |  |
| COc1c(Cl)ncnc1-c1cc(C(F)(F)F)ccc1NC(=O)C1=C(O)[C@@]2(C)CCCN2N(Cc2cccc(F)c2F)C1=O [Example 49] | 85 | 12.9 |  |

| SMILES | Rate of uptake inhibition (%) (1 μM) [1] | IC50 (human NaPi-IIb; read-out: IC50) [µM] | IC50 (human NaPi-IIb; [2]) [µM] |
| --- | --- | --- | --- |
| Cc1cc(S(=O)(=O)N(C)C)ccc1-c1cc(C(F)(F)F)ccc1NC(=O)C1=C(O)[C@@]2(C)CCCN2N(Cc2cccc(F)c2F)C1=O [Example 50] | 79 | 8.3 |  |
| C[C@]12CCCN1N(Cc1cccc(C#N)c1)C(=O)C(C(=O)Nc1ccc(C(F)(F)F)cc1-c1cnc(Cl)c(C#N)c1)=C2O [Example 51] | 72 | 16 |  |
| C[C@]12CCCN1N(Cc1ccc(OCCN3CCOCC3)c(F)c1F)C(=O)C(C(=O)Nc1ccc(C(F)(F)F)cc1-c1ncnc(C#N)c1Cl)=C2O [Example 53] | 72 | 9.5 |  |
| CSc1ncc(-c2nc(C(F)(F)F)ccc2NC(=O)C2=C(O)[C@@]3(C)CCCN3N(Cc3cccc(F)c3F)C2=O)cn1 [Example 54] | 72 | 2.3 |  |
| COc1nc(C#N)ncc1-c1cc(C(F)(F)F)ccc1NC(=O)C1=C(O)[C@@]2(C)CCCN2N(Cc2ccc(OCCN3CCOCC3)c(F)c2F)C1=O [Example 55] | 85 | 15.3 |  |
| COc1nc(C#N)ncc1-c1cc(C(F)(F)F)ccc1NC(=O)C1=C(O)[C@@]2(C)CCCN2N(Cc2cccc(F)c2F)C1=O [Example 56] | 88 | 7.2 |  |
| C[C@]12CCCN1N(Cc1cccc(F)c1F)C(=O)C(C(=O)Nc1ccc(C(F)(F)F)cc1-c1cnc(C#N)cn1)=C2O [Example 57] | 71 | 10.3 |  |
| COc1ccc(CN2C(=O)C(C(=O)Nc3cc(F)c(Br)c(F)c3)=C(O)[C@@]3(C)CCCN23)c(OC)c1 [Example 58] | 46 |  |  |
| C[C@]12CCCN1N(Cc1ccc(OCCN3CCOCC3)c(F)c1F)C(=O)C(C(=O)Nc1ccc(C(F)(F)F)nc1-c1ccccc1OC(F)(F)F)=C2O [Example 59] | 84 | 7.4 |  |
| C[C@]12CCCN1N(Cc1ccc(OCCN3CCOCC3)c(F)c1F)C(=O)C(C(=O)Nc1ccc(C(F)(F)F)nc1-c1ccc(OC(F)(F)F)cc1)=C2O [Example 60] | 78 | 8.8 |  |
| CC1(C)CC[C@]2(C)C(O)=C(C(=O)Nc3ccc(C(F)(F)F)cc3-c3ccc(C(F)(F)F)nc3)C(=O)N(Cc3cccc(F)c3F)N12 [Example 61] | 71 | 5.6 |  |
| CSc1ncc(-c2cc(C(F)(F)F)ccc2NC(=O)C2=C(O)[C@@]3(C)CCC(C)(C)N3N(Cc3cccc(F)c3F)C2=O)cn1 [Example 62] | 73 | 6.4 |  |
| C[C@]12CCCN1N(Cc1cccc(F)c1F)C(=O)C(C(=O)Nc1ccc(C(F)(F)F)cc1-c1ccc(C#N)nc1)=C2O [Example 94] | 73 | 8.8 |  |
| C[C@]12CCCN1N(Cc1cccc(F)c1F)C(=O)C(C(=O)Nc1ccc(C(F)(F)F)cc1-c1cnc(C#N)nc1)=C2O [Example 95] | 80 | 5.4 |  |
| CSc1ncc(-c2cc(C(F)(F)F)ccc2NC(=O)C2=C(O)[C@@]3(C)CCCN3N(Cc3cccc(F)c3F)C2=O)cn1 [Example 96] | 83 | 2.8 |  |
| CSc1ccc(-c2cc(C(F)(F)F)ccc2NC(=O)C2=C(O)[C@@]3(C)CCCN3N(Cc3cccc(F)c3F)C2=O)cn1 [Example 97] | 89 | 2.7 |  |
| COC(=O)c1cc(-c2cc(C(F)(F)F)ccc2NC(=O)C2=C(O)[C@@]3(C)CCCN3N(Cc3cccc(F)c3F)C2=O)nc(Cl)n1 [Example 98] | 53 | 10.6 |  |
| CN1N(Cc2ccc(OCC[N+]34CCN(CC3)CC4)c(F)c2F)C(=O)C(C(=O)Nc2ccc(C(F)(F)F)cc2-c2cc(C(F)(F)F)ncn2)=C(O)C12CCCC2 [Example 415, 1-(2-(2,3-Difluoro-4-((10-hydroxy-6-methyl-8-oxo-9-((4-(trifluoromethyl)-2-(6-(trifluoromethyl)pyrimidin-4-yl)phenyl)carbamoyl)-6,7-diazaspiro[4.5]dec-9-en-7-yl)methyl)phenoxy)ethyl)-1,4-diazabicyclo[2.2.2]octan-1-ium formate] | 21 |  | 18.5 |
| CN1N(Cc2ccc(NCCN3CCOCC3)c(F)c2F)C(=O)C(C(=O)Nc2ccc(C(F)(F)F)cc2-c2cc(C(F)(F)F)ncn2)=C(O)C12CCCC2 [Example 447] |  |  | 15.8 |
